Where “and” joins values, the source holds several entries; their conditions need not be identical. Identical values can stand only once.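 Compound exposure: 48 hours, 5 concentrations, 96-well plates. GI50 = concentration required for 50% inhibition of growth. TGI denotes the concentration required for complete inhibition of growth.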
How the values were obtained:
Assay in all cases: growth of human tumour cells (NCI), 48 h
SK-OV-3 ovarian = tested on: SK-OV-3 ovarian
MCF7 breast = tested on: MCF7 breast
MOLT-4 leukemia = tested on: MOLT-4 leukemia
U251 CNS = tested on: U251 CNS
MDA-MB-231 breast = tested on: MDA-MB-231 breast
UACC-62 melanoma = tested on: UACC-62 melanoma
UACC-257 melanoma = tested on: UACC-257 melanoma
HL-60(TB) leukemia = tested on: HL-60(TB) leukemia

| Structure (SMILES) | GI50 (SK-OV-3 ovarian) | TGI (SK-OV-3 ovarian) | GI50 (MCF7 breast) | TGI (MCF7 breast) | GI50 (MOLT-4 leukemia) | TGI (MOLT-4 leukemia) | GI50 (U251 CNS) | TGI (U251 CNS) | GI50 (MDA-MB-231 breast) | TGI (MDA-MB-231 breast) | GI50 (UACC-62 melanoma) | TGI (UACC-62 melanoma) | GI50 (UACC-257 melanoma) | TGI (UACC-257 melanoma) | GI50 (HL-60(TB) leukemia) | TGI (HL-60(TB) leukemia) |
| --- | --- | --- | --- | --- | --- | --- | --- | --- | --- | --- | --- | --- | --- | --- | --- | --- |
| COc1ccc(-c2cc(/C=C/C(=O)c3ccc(OC)c(OC)c3)[nH]n2)cc1 | 5.56 µM | 17.1 µM | 0.417 µM | 1.76 µM | 2.67 µM | 8 µM | 1.11 µM | 2.34 µM | 2 µM | 6.63 µM | 1.65 µM | 3.35 µM | 1.73 µM | 3.65 µM | 2.18 µM | 6.4 µM |
| Cc1ccc(Nc2oc(-c3ccccc3)nc2[P+](c2ccccc2)(c2ccccc2)c2ccccc2)cc1 | 1.58 µM | 3.69 µM | 0.433 µM | 1.98 µM | 0.563 µM | 2.52 µM | 0.538 µM | 1.71 µM | 0.788 µM | 2.17 µM | 0.687 µM | 2.01 µM | 0.718 µM | 2.75 µM | 0.425 µM | 1.39 µM |
| C=CCc1ccc(O)c(-c2ccc(O)c(CC=C)c2)c1 | 22.1 µM | 50.1 µM | 8.06 µM | 26.2 µM | 4.94 µM | > 39.9 µM | 14.3 µM | 31.8 µM | 12.1 µM | 25.6 µM | 16 µM | 30 µM | 17.1 µM | 40.6 µM | 9.66 µM | > 52.3 µM |
| CCOC(=O)c1c(-c2ccc(OC)cc2)c(C#N)c2c(C#N)c(N)nn2c1N | 3.49 µM | 19.1 µM | 3.31 µM | > 100 µM | 4.07 µM | > 100 µM | 4.19 µM | 23.7 µM | 3.63 µM | 23.2 µM | 2.47 µM | 15.2 µM | 8.18 µM | > 100 µM | 3.33 µM | > 100 µM |
| CC1(Br)Cc2ccccc2C1=O (stereo unspecified) | – | 65.9 µM | 2.22 µM | 8.52 µM | 0.423 µM | 9.91 µM and 3.4 µM | – | 18.7 µM | – | 22.9 µM | – | 3.63 µM | 13.3 µM | 29.2 µM | 0.495 µM | 6.67 µM and 2.35 µM |
| Cn1c(Nc2ccc(C(F)(F)F)cc2)nc2cc(Oc3ccnc(-c4ncc(C(F)(F)F)[nH]4)c3)ccc21 | 0.0385 µM | 19.1 µM | 3.38 µM | 14.4 µM | 0.319 µM | 8.76 µM | 0.154 µM | 12.9 µM | 0.803 µM | 12.2 µM | 0.0519 µM | 3.89 µM | 0.131 µM | 0.977 µM | 0.365 µM | 7.06 µM |
| O=C(/C=C/C=C/c1ccccc1)c1ccccc1 | – | 70.4 µM | – | 42.9 µM | – | 49.4 µM | – | 27 µM | – | 37.8 µM | – | 33 µM | – | 34.2 µM | – | 28.6 µM |
| COc1ccc(-c2nnc(N3CCN(C(=O)CN4CCN(c5ccccc5)CC4)CC3)nc2-c2ccc(OC)cc2)cc1 | 14.5 µM | 70.7 µM | 2.8 µM | > 100 µM | 2.04 µM | 6.64 µM | 4.14 µM | > 100 µM | 13.4 µM | > 100 µM | 6.48 µM | 40 µM | 6.17 µM | > 100 µM | 1.89 µM | 5.56 µM |

— PubChem BioAssay (NCI)
